Results taken from PMC6397651 (Journal of pharmaceutical and biomedical analysis, 2018).
Values joined by “and” are separate entries in the source; they are usually repeats but may differ in a detail not shown here. Equal entries are not always repeated.

Assays:
[1] = Stability of analytes in rat plasma; format: in vitro ADME; details: for Autosampler stability, % Accuracy / Short-term Stability, % Accuracy: 20°C, 24 hr; for Auto sampler stability / Mean freeze-thaw stability / Mean long term stability / Mean short term stability: range over LQC and HQC; for Short-term Stability, % Accuracy / Mean freeze-thaw stability / Mean long term stability / Mean short term stability / Long-term Stability, % Accuracy / Freeze-Thaw Stability, % Accuracy: rat plasma; for Long-term Stability, % Accuracy / Freeze-Thaw Stability, % Accuracy: −70 ± 10°C; for Long-term Stability, % Accuracy: 30 days; for Freeze-Thaw Stability, % Accuracy: three cycles
[2] = In-vivo pharmacokinetic study in rats: passive cannabis smoke inhalation; details: for CL/F (apparent clearance): Rimonabant 3 mg/kg i.p.
[3] = male, Wistar, rat, plasma, ip, 3 mg/kg
[4] = THC, inhalation, 50 min smoke exposure, Wistar rats
[5] = male, Wistar, rat, plasma, inhaled or intranasal, 0.05 mg/kg

| Compound | Autosampler stability, % Accuracy ([1]; HQC 80 ng/mL) | Autosampler stability, % Accuracy ([1]; LQC 0.3 ng/mL) | Auto sampler stability [1] | Short-term Stability, % Accuracy ([1]; HQC 80 ng/mL) | Short-term Stability, % Accuracy ([1]; LQC 0.3 ng/mL) | Mean freeze-thaw stability [1] | Mean long term stability [1] | Mean short term stability [1] | Long-term Stability, % Accuracy ([1]; HQC 80 ng/mL) | Long-term Stability, % Accuracy ([1]; LQC 0.3 ng/mL) | Freeze-Thaw Stability, % Accuracy ([1]; HQC 80 ng/mL) | Freeze-Thaw Stability, % Accuracy ([1]; LQC 0.3 ng/mL) | further results |
| --- | --- | --- | --- | --- | --- | --- | --- | --- | --- | --- | --- | --- | --- |
| C=C(C)[C@@H]1CCC(C)=C[C@H]1c1c(O)cc(CCCCC)cc1O [CBD, cannabidiol] | 96.80% | 103.60% | 96.80–103.60% | 99.60% | 97.50% | 105.21–108.50% | 103.30–106.50% | 97.50–99.60% | 103.30% | 106.50% | 105.21% | 108.50% | – |
| Cc1c(C(=O)NN2CCCCC2)nn(-c2ccc(Cl)cc2Cl)c1-c1ccc(Cl)cc1 [Rimonabant, rimonabant] | 102.30% | 104.50% | 102.30–104.50% | 104.30% | 95.70% | 106.25–109.50% | 96.90–99.40% | 95.70–104.30% | 99.40% | 96.90% | 109.50% | 106.25% | CL/F (apparent clearance) ([2]; Wistar rats): 2.0 L/h and 2.0 ± 0.3 L/h; CL/F (apparent clearance) ([2]; Wistar rats, listed as rimonabant): 2 L/h; AUC(0-inf) [2, 3]: 458 ng·h/mL; AUC(0-t) [2, 3]: 308 ± 55 ng·h/mL; Cmax [2, 3]: 88.6 ± 5.64 ng/mL; Tmax [2, 3]: 0.2 ± 0.07 h; half-life [2, 3]: 5.4 ± 0.85 h |
| CCCCCc1cc(O)c2c(c1)OC(C)(C)[C@@H]1CCC(C)=C[C@@H]21 [THC, delta-9-tetrahydrocannabinol] | 99.97% | 105.30% | – | 104.40% | 103.20% | – | – | 103.20–104.40% | 97.20% | 108.30% | 109.20% | 112.80% | CL (clearance) [2, 4]: 1.1 ± 0.26 L/h; Vss (volume of distribution at steady state) [2, 4]: 3.9 ± 2.07 L; AUC(0-inf) [2, 5]: 13.9 ± 3.8 ng·h/mL; AUC(0-t) [2, 5]: 12.2 ± 3 ng·h/mL; half-life [2, 5]: 3.7 ± 1.3 h; AUC(0-inf) ([2]; male, Wistar, rat, plasma, inhaled, 0.05 mg/kg): 13.9 ng·h/mL |
